Assay results as given in patent publication EP0497314A1, “Use of azapirones in attention deficit hyperactivity disorder” (Bristol-Myers Squibb Company, priority 1991, dated 1992).
Where a name gives a salt, the structure may show the parent alone. Marks after values point to notes of the source that are not given here.

Tests used:
[1] = system: evoked electrographic activity; conditions: limited number of cats; John, et al, 1973; cited from earlier work
[2] = system: fronto-occipital cortex of the cat; assay: Quantitative EEG, fronto-occipital cat cortex, subcutaneous administration; assay type: in vivo, cats; conditions: for EEG profile: cat cortex; for group percent change in electrical energy from pre-drug control, Δ band / mean change ± S.E. in electrical energy from pre-drug control, Δ band / group percent change in electrical energy from pre-drug control, α band / mean change ± S.E. in electrical energy from pre-drug control, α band / group percent change in electrical energy from pre-drug control, β band / mean change ± S.E. in electrical energy from pre-drug control, β band / group percent change in electrical energy from pre-drug control, γ band / mean change ± S.E. in electrical energy from pre-drug control, γ band / group percent change in electrical energy from pre-drug control, θ band / mean change ± S.E. in electrical energy from pre-drug control, θ band: fronto-occipital cat cortex; for group percent change in electrical energy from pre-drug control, α band / mean change ± S.E. in electrical energy from pre-drug control, α band: α= 7-13 Hz; for group percent change in electrical energy from pre-drug control, β band / mean change ± S.E. in electrical energy from pre-drug control, β band: β= 13-25 Hz; for group percent change in electrical energy from pre-drug control, γ band / mean change ± S.E. in electrical energy from pre-drug control, γ band: γ= 25-40 Hz; for group percent change in electrical energy from pre-drug control, θ band / mean change ± S.E. in electrical energy from pre-drug control, θ band: θ= 3.5-7.0 Hz
How it was run: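 Adult female mongrel cats (n=6 per group) with implanted electrodes were recorded while held in restraining bags, with EEG filtered into Δ, ϑ, α, β and γ bands and integrated as energy counts. Drugs were given subcutaneously in saline, with doses calculated as free base, and recording started 30 min post-injection. Changes from each animal's pre-treatment control were tested by paired Student t-test (P≦0.05).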

[3] = system: rabbit cortex; assay: Quantitative EEG, rabbit cortex, intravenous administration; assay type: in vivo, rabbits; conditions: for group percent change in electrical energy from pre-drug control, Δ band / mean change ± S.E. in electrical energy from pre-drug control, Δ band: Δ = 0.5-3.5 Hz; for group percent change in electrical energy from pre-drug control, α band / mean change ± S.E. in electrical energy from pre-drug control, α band: α= 7-13 Hz; for group percent change in electrical energy from pre-drug control, β band / mean change ± S.E. in electrical energy from pre-drug control, β band: β= 13-25 Hz; for group percent change in electrical energy from pre-drug control, γ band / mean change ± S.E. in electrical energy from pre-drug control, γ band: γ= 25-40 Hz; for group percent change in electrical energy from pre-drug control, θ band / mean change ± S.E. in electrical energy from pre-drug control, θ band: θ= 3.5-7.0 Hz
How it was run: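 Restrained rabbits with cortical leads had EEG split into Δ, ϑ, α, β and γ bands and integrated over 1 h from the moment of i.v. injection, in saline, dosed as free base. Counts were compared with each animal's own pretreatment control by paired t-test (p≦0.05). Doses were reduced geometrically to a no-effect level.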

[4] = system: attention deficit hyperactivity disorder; assay: Treatment of children with attention deficit hyperactivity disorder (Examples 1 and 2); assay type: in vivo, child
Procedure: Buspirone is administered to a person, who has been identified by a clinician as having the symptoms associated with attention deficit hyperactivity disorder. During treatment, the child received […] of buspirone twice a day.
Buspirone is administered to a person, who has been identified by a clinician as having the symptoms associated with attention deficit hyperactivity disorder. During the treatment, the child received […] of buspirone three times a day.

[5] = Δ = 0.05-35 Hz, 0.125 mg/kg free base s.c.
[6] = Δ = 0.05-35 Hz, 0.5 mg/kg free base s.c.
[7] = Δ = 0.5-3.5 Hz, 0.25 mg/kg free base s.c.
[8] = Δ = 0.5-3.5 Hz, 2.0 mg/kg free base s.c.
[9] = Δ = 0.5-3.5 Hz, 8.0 mg/kg free base s.c.
[10] = rabbit cortex, 0.25 mg/kg free base i.v.
[11] = rabbit cortex, 0.50 mg/kg free base i.v.
[12] = child with symptoms of attention deficit hyperactivity disorder, 5 mg/kg twice a day

O=C1CC2(CCCC2)CC(=O)N1CCCCN1CCN(c2ncccn2)CC1 [Buspirone HCl, buspirone hydrochloride]
effect on evoked electrographic activity [1]: possessed properties similar to both chlorpromazine and methamphetamine | minimal effective dose ([2]; Felis catus, sc, fronto-occipital cat cortex EEG, dose of free base, read-out: the minimum dose required to produce the EEG profile characteristic of that particular drug): 0.25 mg/kg | doses required to produce the combined antipsychotic-stimulant EEG profile ([2]; cat cortex EEG, s.c.): at least twice that of thioridazine and chlorpromazine | EEG profile ([2]; 8.0 mg/kg dose, s.c.): causes an increase in electrical "power" in the lowest frequency bands | EEG profile ([2]; higher dose (2.0 and 8.0 mg/kg, s.c.)): elicit a profile which deviates from that produced by the stimulants | the no-effect dose ([2]; fronto-occipital cat cortex EEG, dose of free base): 0.125† mg/kg, s.c. | group percent change in electrical energy from pre-drug control, Δ band [2, 5]: -21% | mean change ± S.E. in electrical energy from pre-drug control, Δ band [2, 5]: -46 ± 27 instrument counts | group percent change in electrical energy from pre-drug control, Δ band [2, 6]: -14% | mean change ± S.E. in electrical energy from pre-drug control, Δ band [2, 6]: -31 ± 18 instrument counts | group percent change in electrical energy from pre-drug control, Δ band [2, 7]: +5% | mean change ± S.E. in electrical energy from pre-drug control, Δ band [2, 7]: +10 ± 8 instrument counts | group percent change in electrical energy from pre-drug control, Δ band [2, 8]: +15% | mean change ± S.E. in electrical energy from pre-drug control, Δ band [2, 8]: +30 ± 22 instrument counts | group percent change in electrical energy from pre-drug control, Δ band [2, 9]: +55% | mean change ± S.E. in electrical energy from pre-drug control, Δ band [2, 9]: +89 ± 29 instrument counts | group percent change in electrical energy from pre-drug control, α band ([2]; 0.125 mg/kg free base s.c.): -18% | mean change ± S.E. in electrical energy from pre-drug control, α band ([2]; 0.125 mg/kg free base s.c.): -23 ± 12 instrument counts | group percent change in electrical energy from pre-drug control, α band ([2]; 0.25 mg/kg free base s.c.): -26% | mean change ± S.E. in electrical energy from pre-drug control, α band ([2]; 0.25 mg/kg free base s.c.): -35 ± 6 instrument counts | group percent change in electrical energy from pre-drug control, α band ([2]; 0.5 mg/kg free base s.c.): -39% | mean change ± S.E. in electrical energy from pre-drug control, α band ([2]; 0.5 mg/kg free base s.c.): -47 ± 12 instrument counts | group percent change in electrical energy from pre-drug control, α band ([2]; 2.0 mg/kg free base s.c.): -15% | mean change ± S.E. in electrical energy from pre-drug control, α band ([2]; 2.0 mg/kg free base s.c.): -20 ± 14 instrument counts | group percent change in electrical energy from pre-drug control, α band ([2]; 8.0 mg/kg free base s.c.): -6% | mean change ± S.E. in electrical energy from pre-drug control, α band ([2]; 8.0 mg/kg free base s.c.): -5 ± 14 instrument counts | group percent change in electrical energy from pre-drug control, β band ([2]; 0.125 mg/kg free base s.c.): -6% | mean change ± S.E. in electrical energy from pre-drug control, β band ([2]; 0.125 mg/kg free base s.c.): -6 ± 4 instrument counts | group percent change in electrical energy from pre-drug control, β band ([2]; 0.25 mg/kg free base s.c.): -17% | mean change ± S.E. in electrical energy from pre-drug control, β band ([2]; 0.25 mg/kg free base s.c.): -24 ± 5 instrument counts | group percent change in electrical energy from pre-drug control, β band ([2]; 0.5 mg/kg free base s.c.): -23% | mean change ± S.E. in electrical energy from pre-drug control, β band ([2]; 0.5 mg/kg free base s.c.): -24 ± 3 instrument counts | group percent change in electrical energy from pre-drug control, β band ([2]; 2.0 mg/kg free base s.c.): -24% | mean change ± S.E. in electrical energy from pre-drug control, β band ([2]; 2.0 mg/kg free base s.c.): -33 ± 8 instrument counts | group percent change in electrical energy from pre-drug control, β band ([2]; 8.0 mg/kg free base s.c.): -21% | mean change ± S.E. in electrical energy from pre-drug control, β band ([2]; 8.0 mg/kg free base s.c.): -22 ± 7 instrument counts | group percent change in electrical energy from pre-drug control, γ band ([2]; 0.125 mg/kg free base s.c.): +5% | mean change ± S.E. in electrical energy from pre-drug control, γ band ([2]; 0.125 mg/kg free base s.c.): +4 ± 3 instrument counts | group percent change in electrical energy from pre-drug control, γ band ([2]; 0.25 mg/kg free base s.c.): 0% | mean change ± S.E. in electrical energy from pre-drug control, γ band ([2]; 0.25 mg/kg free base s.c.): -1 ± 3 instrument counts | group percent change in electrical energy from pre-drug control, γ band ([2]; 0.5 mg/kg free base s.c.): -5% | mean change ± S.E. in electrical energy from pre-drug control, γ band ([2]; 0.5 mg/kg free base s.c.): -4 ± 4 instrument counts | group percent change in electrical energy from pre-drug control, γ band ([2]; 2.0 mg/kg free base s.c.): -9% | mean change ± S.E. in electrical energy from pre-drug control, γ band ([2]; 2.0 mg/kg free base s.c.): -10 ± 3 instrument counts | group percent change in electrical energy from pre-drug control, γ band ([2]; 8.0 mg/kg free base s.c.): -3% | mean change ± S.E. in electrical energy from pre-drug control, γ band ([2]; 8.0 mg/kg free base s.c.): -2 ± 3 instrument counts | group percent change in electrical energy from pre-drug control, θ band ([2]; 0.125 mg/kg free base s.c.): -22% | mean change ± S.E. in electrical energy from pre-drug control, θ band ([2]; 0.125 mg/kg free base s.c.): -32 ± 16 instrument counts | group percent change in electrical energy from pre-drug control, θ band ([2]; 0.25 mg/kg free base s.c.): -16% | mean change ± S.E. in electrical energy from pre-drug control, θ band ([2]; 0.25 mg/kg free base s.c.): -21 ± 6 instrument counts | group percent change in electrical energy from pre-drug control, θ band ([2]; 0.5 mg/kg free base s.c.): -32% | mean change ± S.E. in electrical energy from pre-drug control, θ band ([2]; 0.5 mg/kg free base s.c.): -46 ± 14 instrument counts | group percent change in electrical energy from pre-drug control, θ band ([2]; 2.0 mg/kg free base s.c.): +13% | mean change ± S.E. in electrical energy from pre-drug control, θ band ([2]; 2.0 mg/kg free base s.c.): +17 ± 15 instrument counts | group percent change in electrical energy from pre-drug control, θ band ([2]; 8.0 mg/kg free base s.c.): +34% | mean change ± S.E. in electrical energy from pre-drug control, θ band ([2]; 8.0 mg/kg free base s.c.): +35 ± 15 instrument counts | minimal effective dose ([3]; Oryctolagus cuniculus, iv, rabbit cortex EEG, dose of free base, read-out: the minimum dose required to produce the EEG profile characteristic of that particular drug): 0.5 mg/kg | the no-effect dose ([3]; rabbit cortex EEG, dose of free base): 0.25† mg/kg, i.v. | EEG profile ([3]; rabbit cortex, i.v.): shares a component of stimulation similar to that of methylphenidate and dextroamphetamine | group percent change in electrical energy from pre-drug control, Δ band [3, 10]: 0% | mean change ± S.E. in electrical energy from pre-drug control, Δ band [3, 10]: -1 ± 18 instrument counts | group percent change in electrical energy from pre-drug control, Δ band [3, 11]: -34% | mean change ± S.E. in electrical energy from pre-drug control, Δ band [3, 11]: -114 ± 25 instrument counts | group percent change in electrical energy from pre-drug control, α band [3, 10]: -1% | mean change ± S.E. in electrical energy from pre-drug control, α band [3, 10]: -2 ± 12 instrument counts | group percent change in electrical energy from pre-drug control, α band [3, 11]: -32% | mean change ± S.E. in electrical energy from pre-drug control, α band [3, 11]: -70 ± 13 instrument counts | group percent change in electrical energy from pre-drug control, β band [3, 10]: -4% | mean change ± S.E. in electrical energy from pre-drug control, β band [3, 10]: -5 ± 7 instrument counts | group percent change in electrical energy from pre-drug control, β band [3, 11]: -28% | mean change ± S.E. in electrical energy from pre-drug control, β band [3, 11]: -47 ± 10 instrument counts | group percent change in electrical energy from pre-drug control, γ band [3, 10]: -5% | mean change ± S.E. in electrical energy from pre-drug control, γ band [3, 10]: -5 ± 2 instrument counts | group percent change in electrical energy from pre-drug control, γ band [3, 11]: -14% | mean change ± S.E. in electrical energy from pre-drug control, γ band [3, 11]: -17 ± 3 instrument counts | group percent change in electrical energy from pre-drug control, θ band [3, 10]: -5% | mean change ± S.E. in electrical energy from pre-drug control, θ band [3, 10]: -10 ± 14 instrument counts | group percent change in electrical energy from pre-drug control, θ band [3, 11]: -35% | mean change ± S.E. in electrical energy from pre-drug control, θ band [3, 11]: -86 ± 11 instrument counts | clinical response during and after treatment [4, 12]: spectacular and very fast improvement | sleep disturbance [4, 12]: no sleep disturbance | clinical response during and after treatment ([4]; with symptoms of attention deficit hyperactivity disorder, 5 mg/kg three times a day): excellent response
